This note sets out measurements from ChEMBL document CHEMBL1121514, “6-(Phenylthio)-substituted 2,3,4,5-tetrahydro-1H-3-benzazepines, a novel class of dopamine receptor antagonists and neuroleptics” (J Med Chem, 1980).

Assay [1] addresses Adenylate cyclase. Put plainly: Inhibitory concentration against Dopamine sensitive adenylate cyclase in rats. Type of assay: functional.
Assay [2] addresses Adenylate cyclase. Put plainly: Inhibitory activity against Dopamine sensitive adenylate cyclase in rats.
For assay [3], the system named is Rattus norvegicus. The assay is described as follows: Effective Dose for avoidance acquisition in naive rats when administered intraperitoneal. As to conditions: ip. In kind it is functional.
Assay [4] deals with Rattus norvegicus. Put plainly: Effective Dose for catalepsy production in naive rats when administered intraperitoneal. Type of assay: functional. As to conditions: ip.
Assay [5] concerns Canis lupus familiaris. Put plainly: % Change in renal vascular resistance in dogs when administered at dose 3 ug/kg intravenously.
In assay [6] the test system is Canis lupus familiaris. Put plainly: % Change in renal vascular resistance in dogs when administered at dose 15 ug/kg intravenously.

With `CN1CCc2c(Cl)c(O)c(O)c(Sc3ccccc3)c2CC1`, on Adenylate cyclase [1], the IC50 (in general, the midpoint of a concentration-inhibition curve) turned out to be 360 nM. The Ki (in general, a measure of affinity in units of concentration, obtained from inhibition or displacement) on Adenylate cyclase [2] was determined as 33 nM. Moreover, the ED50 (commonly the dose that gives a 50% effect, or the effect in half of the subjects) turned out to be 0.08 mg/kg in the assay with Rattus norvegicus [3] and 3 mg/kg with Rattus norvegicus [4].
`Br.Oc1cc2c(c(Sc3ccccc3)c1O)CCNCC2`: the IC50 at Adenylate cyclase [1] amounted to 2700 nM. The same compound showed a Ki on Adenylate cyclase [2] of 250 nM. Moreover, the values for the ED50 in the assay on Rattus norvegicus [3] and in the assay with Rattus norvegicus [4] were 4.9 mg/kg and 64.6 mg/kg, respectively.
For `Br.CN1CCc2cc(O)c(O)c(Sc3ccccc3)c2CC1`, the IC50 against Adenylate cyclase [1] is 240 nM. Moreover, the Ki on Adenylate cyclase [2] was 22 nM. Further, the ED50 was found to be 0.5 mg/kg in the assay with Rattus norvegicus [3] and 5.6 mg/kg with Rattus norvegicus [4].
For the compound `CN(C)CCCN1c2ccccc2Sc2ccc(Cl)cc21` [CHLORPROMAZINE], the IC50 against Adenylate cyclase [1] amounted to 1300 nM. Also, at Adenylate cyclase [2], the Ki stood at 118 nM. The ED50 in the assay with Rattus norvegicus [3] is 1.5 mg/kg; in the assay on Rattus norvegicus [4], 4.2 mg/kg.
For the compound `NCCc1ccc(O)c(O)c1` [DOPAMINE], in the assay with Canis lupus familiaris [5], the Change is 8%.
Turning to H-RPPGFSPFR-OH [BRADYKININ], the Change was -19% in the assay on Canis lupus familiaris [5] and -37% in the assay with Canis lupus familiaris [6].
